The values below come from patent publication US10786481B2, “Hydroquinone compounds, preparation methods therefor, and use in anti-tumor or immunomodulation therapy” (Biomedical Analysis Center, Academy of Military Medical …, priority 2016, dated 2020).

One data set relates to monocytes. Particulars: via inhibition of ROS generation; Cell Research 2013, 23:898-914; cited from earlier work.
Data set [1] is described as follows: Drug metabolism tests of BHA in vivo. On the set-up: species or system mice. Particulars: for half-life: mouse, plasma.
Another data set concerns Her2 breast cancer. Briefly: Mice model with Her2 breast cancer. Format: in vivo.
Data set [2] concerns lung cancer in K-rasLA2 model mice. Particulars: fodder of 0.75% BHA; Cell Research 2013, 23:898-914; cited from earlier work.
In data set [3] the test system is mice embryonic fibroblast (NIH3t3). The experiment in a line: Cytotoxicity, MTS method, NIH3T3 cell. Particulars: Mus musculus. In kind it is cell-based. The source says:
(§1) The toxicity of compounds is detected with MTS method in the immortalized mice bone marrowmacrophages (IBMM), mice embryonic fibroblast (NIH3t3) and humanized embryonic nephrocyte.

Data set [4] relates to humanized embryonic nephrocyte (HEK293 cell). The experiment in a line: Cytotoxicity, MTS method, HEK293 cell. Format: cell-based. Particulars: Homo sapiens.
Source text: as §1

The test system of data set [5] is mice. The experiment in a line: Toxicology experiment of BHA in mice. In kind it is in vivo.
Data set [6] relates to immortalized mice bone marrowmacrophages (IBMM). Briefly: Cytotoxicity, MTS method, IBMM cell. Particulars: Mus musculus, Bone marrow macrophage, read-out: IC50(mM) IBMM cell. Format: cell-based.
Source text: as §1

Data set [7] is described as follows: Acute toxicity in mice, up-down method. Format: in vivo. Particulars: mouse, in vivo. How it is done: (§2) Detecting the acute toxicity of some of the compounds by using up-down method. Intragastric administrating a drug to the mice of 20˜22 g; lyase is corn oil, fasting for 12 h before administration, with free drinking.
Another data set concerns macrophages M2. The experiment in a line: Polarization of macrophages M2. The conditions noted are these: FIG. 1.
Data set [8] in a line: Release experiment of target compound in human plasma. Particulars: 37° C., 5 min to 9 h.
Method: Mobile phase: gradient elution; A: water; B: methanol;
Chromatographic column: CAPCEL PAK MF PH-1;
Detecting instrument: TQ-S; ion source: APCI; ion detection mode: MRM;
Dissolving the target compound with DMSO, then diluting to 5 μg/mL with the normal saline of 0.9%. The human blank plasma after subpackage is preserved at −70° C., unfreezing in a refrigerator at 4° C. when used. Take 20 μL of the blank plasma, adding 20 μL of the target compound solution as above formulated, vortexing for 15 s, and left it in the water bath at 37° C. […] Take the supernatant and inject 10 μL for detection.
Data set [9] deals with mice. The experiment in a line: Acute toxicity in mice, up-down method. Format: in vivo. Particulars: mice, intragastric. Here is the method: as §2
Setting [10] is: po, mice, intragastric, corn oil, up-down method, unit inferred.
Where [11] appears, read: NIH3T3, MTS method, read-out: IC50(mM) NIH3T3 cell.
Where [12] appears, read: HEK293, MTS method, read-out: IC50(mM) HEK293 cell.

Where two headings read alike, the source gives them in different places. Some results are limits rather than exact numbers.

With `COc1cc(C(C)=O)ccc1O` [Apocynin], the “differentiation of monocytes toward M2 macrophages” value (“differentiation” below) with monocytes is reported as “inhibit differentiation of monocytes toward M2 macrophages”.

Regarding `COc1ccc(O)c(C(C)(C)C)c1` [BHA, 2-tert-butyl-4-methoxyphenol], the half-life in data set [1] (FIG. 2A and B, read-out: half-life of BHA in vivo) was 30 to 60 min; in data set [1] (mice, oral, read-out: T112 (half-life)), 20 min. The same molecule gave a time to peak in data set [1] (oral) of 5 min. The anti-tumor effects entry in the data set on Her2 breast cancer (HER2 mice model, 50-1000 mg/kg BW dosed in portions) is listed as “obvious anti-tumor effects”. For the same molecule, the metastasis in head entry with Her2 breast cancer (Her2 tumor model with the breast cancer, FIG. 1A) is on record as “not observed”. In data set [2], the “generation of lung cancer” value is recorded as “completely inhibited”. Besides, the IC50 in data set [3] (NIH3T3, read-out: IC50(mM) NIH3T3 cell) turned out to be 0.267 mM; in data set [4] (HEK293, read-out: IC50(mM) HEK293 cell), 0.325 mM; in data set [6], 0.218 mM. In addition, in the data set with monocytes, the “differentiation” value is “inhibit differentiation of monocytes toward M2 macrophages”. In addition, in the data set on mice [5] (600 mg/kg, recover after half an hour), the toxic signs result is “central effect of partially “hangover” state”. The mortality entry in the data set on mice [5] (1100 mg/kg) is given as “Half of the mice with 1100 mg/kg are caused to die”. Also, in the data set with mice [5] (1100 mg/kg), the “time until symptoms of the toxic reaction disappear in survival mice” value was 30 to 60 min. In addition, in the data set with mice [5] (low dose, long term dosed for two years), the “toxic effect, long term dosing” value is recorded as “toxic effect is not seen”. For the same molecule, the LD50 in data set [7] (oral, acute toxicity in mice, as restated) is 1100 mg/kg; in data set [7] (setting [10]) it was 1100 mg/kg. Also, in the data set on macrophages M2, the “polarization effect of macrophages M2” value is “inhibits the polarization effect of macrophages M2”.

With `CC(=O)N[C@@H](CS)C(=O)O` [NAC], the “differentiation” value in the data set on monocytes was “inhibit differentiation of monocytes toward M2 macrophages”.

On to `CC1(C)CCCC(C)(C)N1[O]` [TEMPO], for which the “differentiation” value in the data set on monocytes is reported as “inhibit differentiation of monocytes toward M2 macrophages”.

Consider `COc1ccc(OC(C)=O)c(C(C)(C)C)c1` [XH2006, 2-tert-butyl-4-methoxyphenol acetate], for which the “release of BHA in human plasma” value in data set [8] was “releases BHA”. Besides, the half-maximal inhibitory concentration (IC50) in data set [3] (setting [11]) stood at 0.021 mM; in [4] (setting [12]) it was 0.118 mM; in data set [6] (MTS method) it was 0.443 mM. In data set [7] (setting [10]), this molecule displayed an LD50 of over 1200 mg/kg. Moreover, the “acute toxicity compared with BHA” value in the data set on mice [9] was “lower than that of 2-tert-butyl-4-methoxyphenol-oxyl (BHA)”.

Consider `COc1ccc(OC(=O)c2cccnc2)c(C(C)(C)C)c1` [XH2010, 2-tert-butyl-4-methoxyphenol nicotinate], for which the “release of BHA in human plasma” value in [8] is listed as “releases BHA”. In addition, the 50% inhibitory concentration (IC50) in data set [3] (setting [11]) is 0.186 mM; in data set [4] (setting [12]) it was 0.207 mM; in data set [6] (MTS method), 0.175 mM. Further, the 50% lethal dose (LD50) in [7] (setting [10]) is over 1200 mg/kg. The “acute toxicity compared with BHA” value with mice [9] is “lower than that of 2-tert-butyl-4-methoxyphenol-oxyl (BHA)”.

As for `COc1ccc(OC(=O)c2ccncc2)c(C(C)(C)C)c1` [XH2011, 2-tert-butyl-4-methoxyphenol isonicotinate], the “release of BHA in human plasma” value in [8] was “releases BHA”. The half-inhibitory concentration (IC50) in data set [3] (setting [11]) was 0.0326 mM; in [4] (setting [12]), 0.311 mM; in data set [6] (MTS method), 0.119 mM. This molecule gave an LD50 in [7] (setting [10]) of over 1300 mg/kg. The “acute toxicity compared with BHA” value with mice [9] was “lower than that of 2-tert-butyl-4-methoxyphenol-oxyl (BHA)”.

Take `COc1ccc(OC(=O)Cc2cc(F)c(F)cc2F)c(C(C)(C)C)c1` [XH2041-2, (2-tert-butyl-4-methoxyphenol) 2,4,5-trifluorophenylacetate]: in data set [8], the “release of BHA in human plasma” value was “releases BHA”. The IC50 in data set [3] (setting [11]) stood at 0.26 mM; in [4] (setting [12]), 0.349 mM; in data set [6] (MTS method), 0.156 mM.

Take `COc1ccc(OC(=O)CC(F)(F)F)c(C(C)(C)C)c1` [XH2044-1, (2-tert-butyl-4-methoxyphenol) 3,3,3-trifluoropropionate]: in [8], the “release of BHA in human plasma” value is “releases BHA”. Moreover, the figures for the IC50 in data set [3] (setting [11]), in [4] (setting [12]) and in [6] (MTS method) were 0.353 mM, 0.206 mM and over 0.7 mM, respectively.

Turning to “(2-tert-butyl-4-methoxyphenol) morpholin-4-yl acetate [XH2044-2]”, in data set [8], the “release of BHA in human plasma” value was “releases BHA”. The “acute toxicity compared with BHA” value in the data set on mice [9] was “lower than that of 2-tert-butyl-4-methoxyphenol-oxyl (BHA)”. This molecule also registered an LD50 in the data set on mice [9] (corn oil, up-down method, unit inferred) of over 1300 mg/kg.
